Measurements taken from patent publication US9249163B2, “PDE10a inhibitors for the treatment of type II diabetes” (Janssen Pharmaceutica, NV, priority 2013, dated 2016).
Counter-ions that a name gives are not always drawn.

Key:
[1] = PDE10a-perfused brain permeability study (plasma and brain concentrations); details: male, Sprague-Dawley, rat; for Kp at 2 h: brain/plasma
Description: Drug administration by oral gavage, subcutaneous injection or intravenous was carried out using male Sprague Dawley rats under IACUC protocol (SH-MET3010). Male Sprague Dawley rats (Charles River) ˜300-350 g were maintained on a 4% standard rodent diet (Test Diet 5001). They are allowed ad libitum access to water and food. Room temperature was maintained at 64° F. and humidity at 30-70%.
Three animals per compound were provided a dose of 2 mg/mL in 20% HpbCD/Tris pH 8 by tail i.v. or 30 mpk p.o. or s.c. in 20% HpbCD/Tris pH 8, with PDE10a antagonists. A first blood sample was collected at 30 min via retro-orbital sinus (anesthetic by 70% CO2/30% O2) into heparinzed plasma separator tubes. The blood was centrifuged and 100 uL plasma was placed into a 96 well plate and saved on dry ice.
After the 120 min, the final blood sample was collected via retro-orbital sinus under anesthesia by IP 0.5 cc injection of a 4/1 mixture of Ketaset: AnaSed [(prepared 10 mL Ketaset (100 mg/mL Ketamine)+2.5 mL AnaSed (20 mg/mL Xylazine)]. The rats were then perfused with 400 mL heparinized saline (10,000 units/L) through the left ventricle of the heart; the brains were then removed (not including the medulla), weighed and homogenized in PBS (4 mL/g tissue). The samples were stored at −80° C. and submitted for chemical analysis of blood and brain concentrations. Endpoints of sample analysis consists of the plasma concentrations at 30 and 120 min, plus brain concentrations at 120 min.

[2] = target: Rat recombinant PDE10a (rPDE10a) (Rattus norvegicus (Rat), UniProt Q9QYJ6); experiment: In vitro assay PDE10a (rat recombinant PDE10a, SPA); assay type: biochemical; details: 60 nM cAMP, 60 min at rt, read-out: rPDE10a2 IC50
Sequence of Rat recombinant PDE10a (rPDE10a) (Q9QYJ6 whole entry): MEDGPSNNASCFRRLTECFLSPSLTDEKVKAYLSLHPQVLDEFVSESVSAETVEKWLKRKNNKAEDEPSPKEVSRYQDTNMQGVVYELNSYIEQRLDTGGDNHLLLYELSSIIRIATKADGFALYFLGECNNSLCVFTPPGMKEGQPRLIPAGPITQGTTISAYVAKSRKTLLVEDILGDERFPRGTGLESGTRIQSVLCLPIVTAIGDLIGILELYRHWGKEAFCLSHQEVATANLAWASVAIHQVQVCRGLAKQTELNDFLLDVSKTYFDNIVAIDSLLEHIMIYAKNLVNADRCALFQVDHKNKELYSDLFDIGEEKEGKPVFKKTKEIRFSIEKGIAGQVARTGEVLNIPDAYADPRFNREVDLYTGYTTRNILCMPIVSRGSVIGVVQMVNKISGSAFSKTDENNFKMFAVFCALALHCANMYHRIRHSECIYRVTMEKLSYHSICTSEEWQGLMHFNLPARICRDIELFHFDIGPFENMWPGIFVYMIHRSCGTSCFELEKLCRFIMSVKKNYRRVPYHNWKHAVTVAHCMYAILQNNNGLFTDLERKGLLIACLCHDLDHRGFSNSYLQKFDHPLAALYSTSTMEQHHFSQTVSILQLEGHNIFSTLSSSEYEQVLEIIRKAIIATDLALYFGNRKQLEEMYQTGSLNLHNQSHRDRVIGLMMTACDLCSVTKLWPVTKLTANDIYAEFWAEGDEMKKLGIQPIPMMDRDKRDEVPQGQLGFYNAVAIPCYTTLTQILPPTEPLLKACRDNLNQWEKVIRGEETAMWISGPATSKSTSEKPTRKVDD
Outline: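 Rat PDE10a expressed in Sf9 cells (baculovirus) and Ni-sepharose purified. Incubated with compound for 60 min at rt in 50 mM Tris pH 7.8, 8.3 mM MgCl2, 1.7 mM EGTA with 60 nM cAMP plus 0.008 μCi ^3H-cAMP (final), 1% DMSO. Read-out by PDE SPA bead scintillation counting (cpm), no-enzyme blank.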

[3] = target: Human recombinant PDE10A2 (Homo sapiens (Human), UniProt Q9Y233); experiment: In vitro hPDE10a (human recombinant PDE10A2, scintillation proximity assay); assay type: biochemical; details: human recombinant PDE10A2, 60 nM cAMP, 60 min at room temperature; read-out: hPDE10a2 IC50
Sequence of Human recombinant PDE10A2 (Q9Y233 267-1055): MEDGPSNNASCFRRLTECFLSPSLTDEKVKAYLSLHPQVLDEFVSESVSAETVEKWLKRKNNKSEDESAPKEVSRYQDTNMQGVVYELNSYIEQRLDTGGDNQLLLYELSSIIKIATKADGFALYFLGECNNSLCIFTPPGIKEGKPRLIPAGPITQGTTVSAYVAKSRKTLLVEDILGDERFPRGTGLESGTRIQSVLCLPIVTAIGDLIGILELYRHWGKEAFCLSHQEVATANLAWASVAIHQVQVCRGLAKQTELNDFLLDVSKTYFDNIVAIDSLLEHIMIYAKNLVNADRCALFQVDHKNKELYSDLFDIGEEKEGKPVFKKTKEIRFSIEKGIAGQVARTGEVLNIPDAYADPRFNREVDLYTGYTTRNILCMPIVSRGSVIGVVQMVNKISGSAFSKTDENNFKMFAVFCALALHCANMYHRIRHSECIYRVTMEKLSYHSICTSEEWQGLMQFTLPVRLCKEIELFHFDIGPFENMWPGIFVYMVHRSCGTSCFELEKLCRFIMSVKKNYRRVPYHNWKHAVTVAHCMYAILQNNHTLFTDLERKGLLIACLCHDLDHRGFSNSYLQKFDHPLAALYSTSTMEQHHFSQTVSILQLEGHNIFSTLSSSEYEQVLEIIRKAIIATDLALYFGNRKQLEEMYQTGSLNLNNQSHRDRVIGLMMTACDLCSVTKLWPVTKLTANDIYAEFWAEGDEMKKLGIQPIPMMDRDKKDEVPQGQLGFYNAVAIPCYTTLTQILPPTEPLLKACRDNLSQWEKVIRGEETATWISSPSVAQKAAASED

Row | concentration at 2 h ([1]; brain) [ng/g] | Kp at 2 h [1] | concentration at 2 h ([1]; plasma) [ng/mL] | IC50 [2] [nM] | IC50 [3] [nM] | Structure (SMILES)
1 | 49.3 | 2.26 | 22.4 | 13 | 34 | c1ccc2nc(OCc3cn4c(-c5ccc(N6CCNCC6)nc5)cnc(N5CCOCC5)c4n3)ccc2c1 [Cpd 126, 4-(5-(6-(piperazin-1-yl)pyridin-3-yl)-2-((quinolin-2-yloxy)methyl)imidazo[1,2-a]pyrazin-8-yl)morpholine methane sulfonic acid salt]
2 | 0 | 0 | 118 | – | – | O=c1[nH]nnn1-c1ccc(-c2cnc(N3CCOCC3)c3nc(/C=C/c4ccc5ccccc5n4)cn23)cc1 [Cpd 55, (E)-1-(4-(8-Morpholino-2-(2-(quinolin-2-yl)vinyl)imidazo[1,2-a]pyrazin-5-yl)phenyl)-1H-tetrazol-5(4H)-one]
3 | 0 | 0 | 142 | – | – | O=C(O)c1ccc(-c2cnc(N3CCOCC3)c3nc(/C=C/c4ccc5ccccc5n4)cn23)cc1 [Cpd 16, (E)-4-(8-morpholino-2-(2-(quinolin-2-yl)vinyl)imidazo[1,2-a]pyrazin-5-yl)benzoic acid trifluoroacetic acid salt]
4 | 0 | 0 | 2 | < 1 | – | CC(=O)NS(=O)(=O)c1ccc(-c2cnc(N3CCOCC3)c3nc(CCc4ccc5ccccc5n4)cn23)cc1 [Cpd 63, N-((4-(8-Morpholino-2-(2-(quinolin-2-yl)ethyl)imidazo[1,2-a]pyrazin-5-yl)phenyl)sulfonyl)acetamide]
5 | – | – | – | 95 | 89 | COC1CCN(c2ncc(-c3ccc(N4CCNCC4)nc3)n3cc(COc4ccc5ccccc5n4)nc23)CC1 [Cpd 112, 2-((8-(4-Methoxypiperidin-1-yl)-5-(6-(piperazin-1-yl)pyridin-3-yl)imidazo[1,2-a]pyrazin-2-yl)methoxy)quinoline trifluoroacetic acid salt]
6 | – | – | – | 31 | 25 | O=c1[nH]cnn1-c1ccc(-c2cnc(N3CCOCC3)c3nc(CCc4ccc5ccccc5n4)cn23)cc1 [Cpd 21, 1-(4-(8-Morpholino-2-(2-(quinolin-2-yl)ethyl)imidazo[1,2-a]pyrazin-5-yl)phenyl)-1H-1,2,4-triazol-5(4H)-one]
7 | 98.2 | – | 35.6 | 8 | – | Nc1ccc(-c2cnc(N3CCOCC3)c3nc(COc4ccc5ccccc5n4)cn23)cn1 [Cpd 122, 5-(8-Morpholino-2-((quinolin-2-yloxy)methyl)imidazo[1,2-a]pyrazin-5-yl)pyridin-2-amine methane sulfonic acid salt]
8 | – | – | – | 9 | 5 | O=C(O)c1ccc(-c2cnc(N3CCOCC3)c3nc(/C=C/c4ccc5ccccc5n4)cn23)cc1F [Cpd 3, (E)-2-Fluoro-4-(8-morpholino-2-(2-(quinolin-2-yl)vinyl)imidazo[1,2-a]pyrazin-5-yl)benzoic acid hydrochloric acid salt]
9 | – | – | – | 17 | 35 | c1ccc2nc(CCc3cn4c(-c5ccc(N6CCNCC6)nc5)cnc(N5CCOCC5)c4n3)ccc2c1 [Cpd 102, 4-(5-(6-(piperazin-1-yl)pyridin-3-yl)-2-(2-(quinolin-2-yl)ethyl)imidazo[1,2-a]pyrazin-8-yl)morpholine trifluoroacetic acid salt]
10 | – | – | – | 2000 | 1350 | c1ccc2nc(C3CN(c4cn5c(-c6ccc(N7CCNCC7)nc6)cnc(N6CCOCC6)c5n4)C3)ccc2c1 [Cpd 114, 4-(5-(6-(piperazin-1-yl)pyridin-3-yl)-2-(3-(quinolin-2-yl)azetidin-1-yl)imidazo[1,2-a]pyrazin-8-yl)morpholine trifluoroacetic acid salt]

Row | Structure (SMILES) | concentration at 2 h ([1]; brain) [ng/g] | Kp at 2 h [1] | concentration at 2 h ([1]; plasma) [ng/mL] | IC50 [2] [nM] | IC50 [3] [nM]
11 | O=C(O)C1CCN(c2ccc(-c3cnc(N4CCOCC4)c4nc(/C=C/c5ccc6ccccc6n5)cn34)cc2)CC1 [Cpd 14, (E)-1-(4-(8-Morpholino-2-(2-(quinolin-2-yl)vinyl)imidazo[1,2-a]pyrazin-5-yl)phenyl)piperidine-4-carboxylic acid trifluoroacetic acid salt] | 35.5 | 0.07 | 503 | 11 | 6
